Measured values from PMC7383220 (BioFactors (Oxford, England), 2018).
Read-outs that look alike come from different tables or passages of the source. Each block holds one molecule with its values, some of them ahead of it.

Experiments:
[1] = target: T1, HeLa1A1 cell lysate (Homo sapiens, UniProt P22309); assay type: biochemical
T1 sequence (P22309 26-533): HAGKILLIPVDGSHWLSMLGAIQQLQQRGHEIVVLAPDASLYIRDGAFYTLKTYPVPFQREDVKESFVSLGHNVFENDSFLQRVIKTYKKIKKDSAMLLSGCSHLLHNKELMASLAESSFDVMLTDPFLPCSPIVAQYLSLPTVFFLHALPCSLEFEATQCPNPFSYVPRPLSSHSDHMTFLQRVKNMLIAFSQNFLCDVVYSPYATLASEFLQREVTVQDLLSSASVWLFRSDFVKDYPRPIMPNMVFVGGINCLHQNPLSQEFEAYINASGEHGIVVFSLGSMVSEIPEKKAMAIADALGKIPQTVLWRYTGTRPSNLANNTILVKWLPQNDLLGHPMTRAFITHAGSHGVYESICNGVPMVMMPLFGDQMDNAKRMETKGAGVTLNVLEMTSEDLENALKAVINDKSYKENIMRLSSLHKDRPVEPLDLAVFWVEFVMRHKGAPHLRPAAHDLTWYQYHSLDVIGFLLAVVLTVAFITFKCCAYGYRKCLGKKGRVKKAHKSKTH

[2] = system: HeLa1A1 cells; assay: BDMC-O-glucuronide excretion experiments in HeLa1A1 cells; assay type: cell-based, human; conditions: for Increase of intracellular levels of BDMC-O-glucuronide / Decrease of BDMC-O-glucuronide excretion: inhibitor 5 and 20 μM, 5 μM BDMC, versus control; for Increase of intracellular levels of BDMC-O-glucuronide: cells collected at 2 h
[3] = target: T2, UGT1A1 (Homo sapiens, UniProt P22309); assay type: biochemical; conditions: for Effect on glucuronidation of BDMC by UGT1A1 enzyme: inhibitor 5 and 20 μM; for Effect of UGT1A1 inhibitors on rates of BDMC-O-glucuronidation: nilotinib 10 μM, protopanaxatriol 500 μM, glycyrrhetinic acid 20 μM
T2 sequence (P22309 26-533): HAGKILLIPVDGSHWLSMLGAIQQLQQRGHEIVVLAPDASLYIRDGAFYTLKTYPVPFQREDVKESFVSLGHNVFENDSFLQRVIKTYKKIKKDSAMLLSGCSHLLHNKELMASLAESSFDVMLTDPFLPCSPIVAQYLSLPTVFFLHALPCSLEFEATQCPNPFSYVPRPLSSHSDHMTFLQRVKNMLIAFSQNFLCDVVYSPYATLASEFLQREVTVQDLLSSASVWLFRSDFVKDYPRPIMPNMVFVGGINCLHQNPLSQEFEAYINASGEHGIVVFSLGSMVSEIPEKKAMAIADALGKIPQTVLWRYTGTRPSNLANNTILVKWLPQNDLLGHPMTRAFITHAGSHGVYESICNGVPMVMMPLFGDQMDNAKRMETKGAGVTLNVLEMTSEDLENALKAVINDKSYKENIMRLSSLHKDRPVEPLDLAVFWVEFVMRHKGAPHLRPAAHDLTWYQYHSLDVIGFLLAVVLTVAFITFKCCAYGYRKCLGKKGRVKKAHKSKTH

[4] = substrate: O=C(/C=C/c1ccc(O)cc1)CC(=O)/C=C/c1ccc(O)cc1; assay: cells, lysate or membranes named; conditions: pH 7.4, 37.0 °C
[5] = other: UGT1A1 enzyme supplemented with UDPGA
[6] = other: HeLa1A1 cell lysate supplemented with UDPGA

Effect on glucuronidation of BDMC by HeLa1A1 cell lysate ([1]; inhibitor 5 and 20 μM): inhibit
Effect on glucuronidation of BDMC by UGT1A1 enzyme [3]: inhibit
Molecule: CN(C)C(=O)CCSC(SCCC(=O)O)c1cccc(/C=C/c2ccc3ccc(Cl)cc3n2)c1 (stereo not shown) [MK-571]
Effect on efflux clearance of BDMC-O-glucuronide ([2]; HeLa1A1 cells, ER/Ci): reduction
Increase of intracellular levels of BDMC-O-glucuronide [2]: 27.1–32.6%
Decrease of BDMC-O-glucuronide excretion [2]: 6.2~61.6%

Effect on glucuronidation of BDMC by HeLa1A1 cell lysate ([1]; inhibitor 5 and 20 μM): inhibit
Effect on glucuronidation of BDMC by UGT1A1 enzyme [3]: inhibit
Molecule: OCCN(CCO)c1nc(N2CCCCC2)c2nc(N(CCO)CCO)nc(N3CCCCC3)c2n1 [DIPY, dipyridamole]
Increase of intracellular levels of BDMC-O-glucuronide [2]: 20.5–25.4%
Decrease of BDMC-O-glucuronide excretion [2]: 8.4–36.5%

Effect on glucuronidation of BDMC by HeLa1A1 cell lysate ([1]; LTC4 0.05 and 0.2 μM): no influences
Effect on glucuronidation of BDMC by UGT1A1 ([3]; LTC4 0.05 and 0.2 μM): no influences
Molecule: CCCCC/C=C\C\C=C/C=C/C=C/[C@@H](SC[C@H](NC(=O)CC[C@H](N)C(=O)O)C(=O)NCC(=O)O)[C@@H](O)CCCC(=O)O [LTC4, leukotriene C4]
Effect on excretion of BDMC-O-glucuronide ([2]; LTC4 0.05 and 0.2 μM): did not show any effects
Effect on formation of BDMC-O-glucuronide ([2]; LTC4 0.05 and 0.2 μM): did not show any effects

Molecule: CC(C)=CCC[C@](C)(O)[C@H]1CC[C@]2(C)[C@@H]1[C@H](O)C[C@@H]1[C@@]3(C)CC[C@H](O)C(C)(C)[C@@H]3[C@@H](O)C[C@]12C [protopanaxatriol]
Effect of UGT1A1 inhibitors on rates of BDMC-O-glucuronidation [3]: altered

Effect of UGT1A1 inhibitors on rates of BDMC-O-glucuronidation [3]: altered
Molecule: CC1(C)[C@@H](O)CC[C@]2(C)[C@H]3C(=O)C=C4[C@@H]5C[C@@](C)(C(=O)O)CC[C@]5(C)CC[C@@]4(C)[C@]3(C)CC[C@@H]12 [glycyrrhetinic acid]

Effect of UGT1A1 inhibitors on rates of BDMC-O-glucuronidation [3]: altered
Molecule: Cc1cn(-c2cc(NC(=O)c3ccc(C)c(Nc4nccc(-c5cccnc5)n4)c3)cc(C(F)(F)F)c2)cn1 [nilotinib]

B1: UGT1A1 (Homo sapiens) (protein)
chain: HAGKILLIPVDGSHWLSMLGAIQQLQQRGHEIVVLAPDASLYIRDGAFYTLKTYPVPFQREDVKESFVSLGHNVFENDSFLQRVIKTYKKIKKDSAMLLSGCSHLLHNKELMASLAESSFDVMLTDPFLPCSPIVAQYLSLPTVFFLHALPCSLEFEATQCPNPFSYVPRPLSSHSDHMTFLQRVKNMLIAFSQNFLCDVVYSPYATLASEFLQREVTVQDLLSSASVWLFRSDFVKDYPRPIMPNMVFVGGINCLHQNPLSQEFEAYINASGEHGIVVFSLGSMVSEIPEKKAMAIADALGKIPQTVLWRYTGTRPSNLANNTILVKWLPQNDLLGHPMTRAFITHAGSHGVYESICNGVPMVMMPLFGDQMDNAKRMETKGAGVTLNVLEMTSEDLENALKAVINDKSYKENIMRLSSLHKDRPVEPLDLAVFWVEFVMRHKGAPHLRPAAHDLTWYQYHSLDVIGFLLAVVLTVAFITFKCCAYGYRKCLGKKGRVKKAHKSKTH
Km [4, 5]: 5.99 ± 0.83 µM
Vmax [4, 5]: 0.00141 µmol/min/mg
Vmax/Km [4, 5]: 235 µL/min/mg

B2: HeLa1A1 cell lysate (Homo sapiens) (protein)
chain: HAGKILLIPVDGSHWLSMLGAIQQLQQRGHEIVVLAPDASLYIRDGAFYTLKTYPVPFQREDVKESFVSLGHNVFENDSFLQRVIKTYKKIKKDSAMLLSGCSHLLHNKELMASLAESSFDVMLTDPFLPCSPIVAQYLSLPTVFFLHALPCSLEFEATQCPNPFSYVPRPLSSHSDHMTFLQRVKNMLIAFSQNFLCDVVYSPYATLASEFLQREVTVQDLLSSASVWLFRSDFVKDYPRPIMPNMVFVGGINCLHQNPLSQEFEAYINASGEHGIVVFSLGSMVSEIPEKKAMAIADALGKIPQTVLWRYTGTRPSNLANNTILVKWLPQNDLLGHPMTRAFITHAGSHGVYESICNGVPMVMMPLFGDQMDNAKRMETKGAGVTLNVLEMTSEDLENALKAVINDKSYKENIMRLSSLHKDRPVEPLDLAVFWVEFVMRHKGAPHLRPAAHDLTWYQYHSLDVIGFLLAVVLTVAFITFKCCAYGYRKCLGKKGRVKKAHKSKTH
Km [4, 6]: 7.33 ± 0.83 µM
Vmax [4, 6]: 0.0012 ± 4.99e-05 µmol/min/mg
Vmax/Km [4, 6]: 164 ± 19.8 µL/min/mg
